What was measured:
[1] = tested on: Plasmodium falciparum; experiment: Antiplasmodial activity against chloroquine, pyrimethamine-resistant Plasmodium falciparum K1 after 48 hrs; type: functional, organism-based; details: K1, 48 h
[2] = tested on: Trypanosoma brucei rhodesiense; experiment: Antitrypanosomal activity against Trypanosoma brucei rhodesiense after 72 hrs by microplate assay; type: functional, organism-based
[3] = Selectivity index, ratio of IC50 for rat L6 cells to IC50 for Trypanosoma brucei rhodesiense; type: functional
[4] = Selectivity index, ratio of IC50 for rat L6 cells to IC50 for Plasmodium falciparum K1; type: functional
[5] = tested on: L6; experiment: Cytotoxicity against rat L6 cells after 72 hrs by microplate assay; type: cell-based; details: L6, 72 h

For `CC(=O)OC1CC2(N(C)C)CC(c3ccccc3)C1C(c1ccccc1)C2` (racemic), the IC50 [1] was > 12500 nM and the IC50 [2] was 4750 nM.
For `O=C(/C=C/c1ccccc1)OC1CC2(N3CCCC3)CC(c3ccccc3)C1C(c1ccccc1)C2` (racemic), the IC50 [1] was 630 nM, the “Ratio IC50” value [3] was 3.37 and the “Ratio IC50” value [4] was 5.56. For the same molecule, the IC50 [5] was 3500 nM and the IC50 [2] was 1040 nM.
For `CN(C)C12CC(OC(=O)/C=C/c3ccccc3)C(C(c3ccccc3)C1)C(c1ccccc1)C2` (racemic), the IC50 [1] was 690 nM, the “Ratio IC50” value [3] was 4.6 and the “Ratio IC50” value [4] was 5.54. The IC50 [5] was 3820 nM and the IC50 [2] was 830 nM.
With `CN(C)C12CC(OC(=O)CN3CCCCC3)C(C(c3ccccc3)C1)C(c1ccccc1)C2` (racemic) the “Ratio IC50” value [3] was 14.7 and the “Ratio IC50” value [4] was 56.27.
For `CCN(CC)CC(=O)OC1CC2(N3CCCC3)CC(c3ccccc3)C1C(c1ccccc1)C2` (racemic), the “Ratio IC50” value [3] was 68.06 and the “Ratio IC50” value [4] was 245.
For `CCN(CC)CC(=O)OC1CC2(N(C)C)CC(c3ccccc3)C1C(c1ccccc1)C2` (racemic), the “Ratio IC50” value [3] was 49.41 and the “Ratio IC50” value [4] was 11.08.
With `CN(C)C12CC(O)C(C(c3ccccc3)C1)C(c1ccccc1)C2` (racemic) the “Ratio IC50” value [3] was 44.92 and the “Ratio IC50” value [4] was <8.53.
For `CC(C)(C)C(=O)OC1CC2(N3CCCCC3)CC(c3ccccc3)C1C(c1ccccc1)C2` (racemic), the IC50 [1] was 7930 nM, the “Ratio IC50” value [3] was 4.46 and the “Ratio IC50” value [4] was 1.51. The IC50 [5] was 12000 nM and the IC50 [2] was 2690 nM.
For `CC(=O)OC1CC2(N3CCCC3)CC(c3ccccc3)C1C(c1ccccc1)C2` (racemic), the IC50 [1] was > 11700 nM and the IC50 [2] was 4930 nM.
With `O=C(CN1CCCCC1)OC1CC2(N3CCCC3)CC(c3ccccc3)C1C(c1ccccc1)C2` (racemic) the “Ratio IC50” value [3] was 38.43 and the “Ratio IC50” value [4] was 38.43.
With `O=C(OC1CC2(N3CCCC3)CC(c3ccccc3)C1C(c1ccccc1)C2)c1ccc2c(c1)OCO2` (racemic) the IC50 [1] was 390 nM, the “Ratio IC50” value [3] was 6.89 and the “Ratio IC50” value [4] was 14.49. It also gave an IC50 [5] of 5650 nM and an IC50 [2] of 820 nM.
In the case of `CC(C)(C)C(=O)OC1CC2(N3CCCC3)CC(c3ccccc3)C1C(c1ccccc1)C2` (racemic), the IC50 [1] is reported as 990 nM, the “Ratio IC50” value [3] is reported as 5.52 and the “Ratio IC50” value [4] is reported as 7.7. The IC50 [5] was 7620 nM and the IC50 [2] was 1380 nM.
With `CN(C)C12CC(OC(=O)CN3CCCC3)C(C(c3ccccc3)C1)C(c1ccccc1)C2` (racemic) the “Ratio IC50” value [3] was 155.5 and the “Ratio IC50” value [4] was 46.
In the case of `O=C(OC1CC2(N3CCCCC3)CC(c3ccccc3)C1C(c1ccccc1)C2)c1ccc2c(c1)OCO2` (racemic), the IC50 [1] is reported as 550 nM, the “Ratio IC50” value [3] is reported as 5.07 and the “Ratio IC50” value [4] is reported as 23.15. It also gave an IC50 [5] of 12700 nM and an IC50 [2] of 2510 nM.
With `O=C(CN1CCCCC1)OC1CC2(N3CCCCC3)CC(c3ccccc3)C1C(c1ccccc1)C2` (racemic) the “Ratio IC50” value [3] was 69.41 and the “Ratio IC50” value [4] was 335.5.
For `O=C(CN1CCCC1)OC1CC2(N3CCCC3)CC(c3ccccc3)C1C(c1ccccc1)C2` (racemic), the IC50 [1] was 700 nM, the “Ratio IC50” value [3] was 186.7 and the “Ratio IC50” value [4] was 61.34. For the same molecule, the IC50 [5] was 42900 nM and the IC50 [2] was 230 nM.
In the case of `C[C@@H]1CC[C@H]2[C@@H](C)C(=O)O[C@@H]3O[C@@]4(C)CC[C@@H]1[C@]32OO4` [ARTEMISININ], the IC50 [1] is reported as 6.4 nM.
In the case of `CC(=O)OC1CC2(N3CCCCC3)CC(c3ccccc3)C1C(c1ccccc1)C2` (racemic), the IC50 [1] is reported as > 11000 nM and the IC50 [2] is reported as 9890 nM.
With `CCN(CC)CC(=O)OC1CC2(N3CCCCC3)CC(c3ccccc3)C1C(c1ccccc1)C2` (racemic) the “Ratio IC50” value [3] was 42.71 and the “Ratio IC50” value [4] was 95.68.
With `O=C(CN1CCCC1)OC1CC2(N3CCCCC3)CC(c3ccccc3)C1C(c1ccccc1)C2` (racemic) the “Ratio IC50” value [3] was 51.19 and the “Ratio IC50” value [4] was 34.85.
In the case of `CN(C)C12CC(OC(=O)C(C)(C)C)C(C(c3ccccc3)C1)C(c1ccccc1)C2` (racemic), the IC50 [1] is reported as 420 nM, the “Ratio IC50” value [3] is reported as 8.16 and the “Ratio IC50” value [4] is reported as 12.05. For the same molecule, the IC50 [5] was 5060 nM and the IC50 [2] was 620 nM.
With `CN(C)C12CC(OC(=O)c3ccc4c(c3)OCO4)C(C(c3ccccc3)C1)C(c1ccccc1)C2` (racemic) the IC50 [1] was 340 nM, the “Ratio IC50” value [3] was 5.43 and the “Ratio IC50” value [4] was 15.65. For the same molecule, the IC50 [5] was 5320 nM and the IC50 [2] was 980 nM.
With `O=C(/C=C/c1ccccc1)OC1CC2(N3CCCCC3)CC(c3ccccc3)C1C(c1ccccc1)C2` (racemic) the IC50 [1] was 450 nM, the “Ratio IC50” value [3] was 7.43 and the “Ratio IC50” value [4] was 23.27. The IC50 [5] was 10500 nM and the IC50 [2] was 1410 nM.

Reference: ChEMBL document CHEMBL1149610, “Bicyclo[2.2.2]octyl esters of dialkylamino acids as antiprotozoals” (Bioorg Med Chem, 2007)
